From patent publication US20090069321A1, “CYANOMETHYL SUBSTITUTED N-ACYL TRYPTAMINES” (priority 2007, published 2009)

Molecular target: T1, human FSH receptor (Homo sapiens, UniProt P23945)
T1 construct: expressed in transfected cells; host or cells: CHO cells (hFSHR clone 16)
T1 sequence (P23945 18-695): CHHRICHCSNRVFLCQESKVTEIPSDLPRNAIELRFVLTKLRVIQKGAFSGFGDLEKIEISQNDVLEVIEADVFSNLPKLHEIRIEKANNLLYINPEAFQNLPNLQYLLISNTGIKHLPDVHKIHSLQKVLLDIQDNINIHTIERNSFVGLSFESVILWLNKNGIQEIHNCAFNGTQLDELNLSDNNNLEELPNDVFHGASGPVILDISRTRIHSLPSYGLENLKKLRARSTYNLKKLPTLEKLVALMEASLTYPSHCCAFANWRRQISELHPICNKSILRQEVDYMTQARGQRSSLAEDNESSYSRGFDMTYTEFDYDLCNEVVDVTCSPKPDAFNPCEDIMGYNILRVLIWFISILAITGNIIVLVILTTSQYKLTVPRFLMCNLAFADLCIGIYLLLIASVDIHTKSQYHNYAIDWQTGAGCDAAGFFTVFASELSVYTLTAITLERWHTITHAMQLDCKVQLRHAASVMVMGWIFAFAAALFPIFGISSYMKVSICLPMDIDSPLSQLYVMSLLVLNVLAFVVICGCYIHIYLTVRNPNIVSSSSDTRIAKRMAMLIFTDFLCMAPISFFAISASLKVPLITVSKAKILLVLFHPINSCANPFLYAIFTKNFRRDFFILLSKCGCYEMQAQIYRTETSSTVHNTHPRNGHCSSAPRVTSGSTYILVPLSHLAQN
Test: HTRF assay for measuring cAMP in cells (FSH antagonism)
Type: cell-based
Settings: hFSHR clone 16 cells (CHO cells stably transfected with the human FSH receptor); in the presence of 1e-9 mol/l hFSH; 37° C. for 2 h; read-out: IC50, FSH antagonistic effect in the HTRF assay
Experimental: HTRF Assay for Measuring cAMP in Cells
The method is based on a competitive immunoassay between native cAMP, which has been produced by the cells, and cAMP which is labelled with cAMPD2 conjugate. The tracer binding was visualized by a monoclonal antibody, anti-cAMP labelled with cryptate [HTRF=homogeneous time-resolved fluorescence].
The specific signal is inversely proportional to the cAMP concentration of the samples employed.
The 665 nm/620 nm fluorescence ratio was evaluated.
The following material was used: 96-well plates for the tissue culture, 96-well plates with black edge and black base (e.g. Fluotrac 600 from Greiner), 96-well plates for the substance dilutions of polypropylene and cAMP Femtomolar (4000wells Kit, CIS Bio International # 62AM5PEJ).
The following reagents were used: BSA (bovine serum albumin) Fraction V protease-free, IBMX (3-isobutyl-1-methylxanthine), hFSH (human follicle stimulating hormone), Triton X-100 analytical grade, potassium fluoride analytical grade, G 418 (Geneticin) and Accutase.
Buffer 1 (washing and testing buffer) contained PBS, 1 mM CaCl2, 1 mM MgCl2, 0.2% glucose; 0.1% BSA, 1 mM IBMX.
Buffer 2 (2× lysis buffer) contained 1% Triton X-100 in PBS (without CaCl2 and MgCl2).
Buffer 3 (assay buffer) contained 50 mM potassium phosphate buffer (pH 7.0); 800 mM potassium fluoride; 0.2% BSA (always added fresh).
On day 1, the cells were seeded in 96-well plates (3×10^4 cells per well hFSHR clone 16 cells (CHO cells stably transfected with the human FSH receptor in 150 μl of medium). The next day, test substance dilutions were made up. For this purpose, all the substances were diluted in ice-cold buffer 1 (with or without hFSH), and the substance dilutions were placed on ice until applied to the cells.
The cell supernatant was then aspirated off, and the cells were washed 2× with 200 μl of buffer 1. The cells were treated with 60 μl of the appropriate substance concentrations at 37° C. for 2 h. The cells were then lysed with 60 μl of buffer 2 (put onto the supernatant) (on a plate shaker at RT for 30 min).
The test conjugates (cAMP-D2 and anti-cAMP cryptate, CIS Bio) were diluted in buffer 3 in accordance with the manufacturers' information. The actual mixture for measurement was pipetted into a black 96-well plate (in each case 15 μl of the cell lysate diluted with 35 μl of buffer 1; firstly 25 μl of cAMP-D2 conjugate were pipetted and, after 10 min, 25 μl of the anti-cAMP cryptate were added). This is followed by incubation at RT for 90 minutes. The measurement was carried out in a PheraStar (BMG).
Tissue Culture Conditions
Dose-effect curve (hFSH) for the human receptor: 1e-8, 3e-9, 1e-9, 3e-10, 1e-10, 3e-11, 1e-11, 3e-12 mol/l.
The test substances were employed in suitable dilutions in the absence (test for agonism) and in the presence of 1e-9 mol/l hFSH.
The values of the well ratio were averaged and then entered directly in SigmaPlot versus the concentrations. The maximum and minimum values were determined for each plate, and half the difference is to be regarded as IC50.

IC50 [nM]	SMILES
3500	CNC(=O)c1cc(F)cc(-c2ccc(OC(C)C)c(C(=O)NC(CC#N)Cc3c[nH]c4ccccc34)c2)c1 (stereo not shown) [Example 1, 5′-Fluoro-4-isopropoxy-biphenyl-3,3′-dicarboxylic acid 3-{[2-cyano-1-(1H-indol-3-ylmethyl)-ethyl]-amide}3′-methylamide]
250	Cc1cc(C(N)=O)ccc1C#Cc1ccc(OC(F)(F)F)c(C(=O)NC(CC#N)Cc2c[nH]c3ccccc23)c1 (stereo not shown) [Example 4, 5-(4-Carbamoyl-2-methylphenylethynyl)-N-[2-cyano-1-(1H-indol-3-ylmethyl)-ethyl]-2-trifluoromethoxy-benzamide]
80	CC(C)Oc1ccc(-c2ccc(C(=O)N3CCOCC3)c(Cl)c2)cc1C(=O)NC(CC#N)Cc1c[nH]c2ccccc12 (stereo not shown) [Example 6, 3′-Chloro-4-isopropoxy-4′-(morpholine-4-carbonyl)-biphenyl-3-carboxylic acid [2-cyano-1-(1H-indol-3-ylmethyl)-ethyl]-amide]
200	CC(C)Oc1ccc(C#Cc2ccc(C(N)=O)cc2)cc1C(=O)NC(CC#N)Cc1c[nH]c2ccccc12 (stereo not shown) [Example 8, 5-(4-Carbamoyl-phenylethynyl)-N-[2-cyano-1-(1H-indol-3-ylmethyl)-ethyl]-2-isopropoxy-benzamide]
750	CNC(=O)c1ccc(C#Cc2ccc(OC(C)C)c(C(=O)NC(CC#N)Cc3c[nH]c4ccccc34)c2)cc1 (stereo not shown) [Example 9, N-[2-Cyano-1-(1H-indol-3-ylmethyl)-ethyl]-2-isopropoxy-5-(4-methylcarbamoyl-phenylethynyl)-benzamide]
3500	CNC(=O)c1cccc(C#Cc2ccc(OC(C)C)c(C(=O)NC(CC#N)Cc3c[nH]c4ccccc34)c2)c1 (stereo not shown) [Example 10, N-[2-Cyano-1-(1H-indol-3-ylmethyl)-ethyl]-2-isopropoxy-5-(3-methylcarbamoyl-phenylethynyl)-benzamide]
10000	CNC(=O)c1ccccc1C#Cc1ccc(OC(C)C)c(C(=O)NC(CC#N)Cc2c[nH]c3ccccc23)c1 (stereo not shown) [Example 11, N-[2-Cyano-1-(1H-indol-3-ylmethyl)-ethyl]-2-isopropoxy-5-(2-methylcarbamoyl-phenylethynyl)-benzamide]
